Reference: a melting point compilation (Tetko et al.; mined from patent text by program, amines drawn as free bases though some values may be those of a salt)

Point of comparison: `O=Cc1cc(O)c(O)cc1[N+](=O)[O-]`, melting point 201 °C. Against it:
- CC(C)(C)OC(=O)N1CCN(c2ccc(Oc3cc(Cl)ccc3[N+](=O)[O-])cc2)CC1 — lower, 124 to 125 °C
- O=C(NCc1ccccn1)c1cc(C(F)(F)F)cc(C(F)(F)F)c1 — lower, 123 to 124 °C
- C[C@@H](n1cccn1)[C@](O)(Cn1ccnc1)c1ccc(F)cc1F — lower, 142 to 143 °C
- O=C(O)CC(NC(=O)OCc1ccccc1)C(=O)CNS(=O)(=O)CCc1ccccc1 (stereo not given) — lower, 100 to 101 °C
- O=C1C(Br)=CC(Br)(Br)C=C1Br — lower, 123 to 127 °C
- CSc1nc(C)nc2c1-c1ccc(Cl)cc1C(c1ccccc1)=NC2 — lower, 181 to 183 °C
- NC(=O)OC(CC(=NNC(N)=S)c1ccccc1)c1ccccc1 (stereo not given) — lower, 149 to 150 °C
- CCCCN(CCCC)c1ccc(C=Cc2ccc(C=CC3=C(C#N)C(=C(C#N)C#N)OC3(c3ccccc3)C(F)(F)F)cc2)c(OC)c1 (stereo not given) — lower, 176 to 178 °C
- Cc1c(O)ccc2oc(-c3ccc(O)cc3)cc12 — higher, 221 to 222 °C
- COCn1c(-c2nc3c(OC)ccc(N4CCOCC4)c3s2)nc2ccc(N3CCOCC3)nc21 — lower, 126 to 128 °C
- CN(C)c1ccc([N+](=O)[O-])cc1Cl — lower, 71 to 73 °C
- CCCCCCCSc1nn2c(=O)c(OC)cnc2s1 — lower, 68 to 71 °C
- COC(=O)CC(=O)c1ccc(O)cc1 — lower, 90 to 92 °C
- CCCCCCCCCC(CC)C(=O)Nc1cc(C(=O)O)ccc1C (racemic) — higher, 217 to 220 °C
- COC(=O)c1ccc(-c2nnc(-c3ccc(C(C)(C)C)cc3)o2)cc1 — higher, 210 to 211 °C
- CCC(C#N)(C(=O)N1CCOCC1)c1ccccc1 (stereo not given) — lower, 88 to 90 °C
- CNCCOC(=O)[C@@H](C)c1ccc2cc(OC)ccc2c1 — lower, 64 to 68 °C
- CNc1ccc(CCc2cc(OC)ccc2OC)cc1C(=O)OC — lower, 73 °C
- O=CN(O)C(CCc1ccccc1)CS(=O)(=O)N1CCN(c2cc(Cl)ncn2)CC1 (stereo not given) — lower, 155 to 157 °C
- CC(=O)Cc1cccc(S(N)(=O)=O)c1 — lower, 155 to 157 °C
- CC(C)(CF)C(=O)C(Oc1cccc(F)n1)n1cncn1 (stereo not given) — lower, 116 °C
- CC1(Oc2ccc(CC(=O)c3ccc4c(c3)CCC4)cc2)CCCC1C(=O)O (stereo not given) — lower, 191 to 193 °C
- CC=CC=CC(O)c1ccc(-c2nc(C)c3c(n2)sc2c(OCC)nc(N4CCNCC4)nc23)cc1 (stereo not given) — lower, 149 to 150 °C
- N#Cc1c(-c2ccc(Cl)cc2)[nH]c(C(F)(F)F)c1Cl — higher, 242 to 243 °C
- Cc1ncc(CN2CC=C(c3ccc(F)cc3)CC2)c(N)n1 — lower, 176 to 178 °C
- CCCc1n[nH]c(CCC)n1 — lower, 69 to 70 °C
- Cc1cn(-c2cccc([N+](=O)[O-])c2)cn1 — lower, 119 to 120 °C
- CC1Nc2ccc(-c3coc(C#N)c3)cc2C(C)(C)O1 (stereo not given) — lower, 116 to 118 °C
- CC(C)(C)OC(=O)NCC[C@H]1CC[C@H](COS(C)(=O)=O)CC1 — lower, 83 to 84 °C
- CCOP(=O)(OCC)C(O)=Cc1nn(-c2ccc(F)cc2)cc1-c1ccc(Cl)cc1 — lower, 96 to 98 °C
- O=C(CCl)Nc1ccc2c(c1NC(=O)c1ccccc1Cl)C(=O)c1ccccc1C2=O — lower, 193 to 194 °C
- CC(C)(C)c1ccc(C(=O)Nc2cn3nc(NC4CCCCC4)ccc3n2)cc1 — higher, 296 to 297 °C
- CCCCCOc1ccc(-c2cnc(C#N)nc2)cc1 — lower, 100 °C
- CNc1nc(C2C(=O)Nc3ccc(C(F)(F)F)cc32)c2cn(C3CCCC3)nc2n1 (stereo not given) — higher, > 300 °C
- O=C(N[C@H](Cc1ccc(C(F)(F)F)cc1)[C@@H](O)c1cccc2ccccc12)c1cccc2ccccc12 (racemic) — higher, 217 to 218 °C
- O=C(O)CC(Cn1cnc2c(=O)[nH]cnc21)C(=O)O (stereo not given) — lower, 130 to 135 °C
- OC1CSC(Oc2cncc(-c3ccc(N4CCCCC4)cc3)c2)C(O)C1O (stereo not given) — lower, 196 °C
- CCOC(=O)c1cn2c3c(c(-c4cc(C)nc(C)c4)c(F)c(F)c3c1=O)OC[C@@H]2C — higher, 295 to 297 °C
- O[C@@H](COc1cccc(-c2noc3ccsc23)c1)CN1CCN(c2n[nH]c3cc(F)ccc23)CC1 — lower, 97 to 99 °C
- CCCCCS(=O)(=O)NC(=O)/C=C/c1cc(OCC2CC2)nn1Cc1ccc(C(F)(F)F)cc1Cl — lower, 148 to 151 °C
- CCOC(=O)C1=C(C)Nc2cc[nH]c(=O)c2C1c1ccccc1Cl (stereo not given) — higher, 204 to 205 °C
- OC1Cn2ccnc2C(=C2CCN(CCc3ccc(OCc4ccc5ccccc5n4)cc3)CC2)c2ccsc21 (stereo not given) — higher, 242 °C
- Cc1ccc(C#CCOCCn2cnc3c(N)nc4ccccc4c32)cc1C — higher, 214 to 216 °C
- Cc1ccc(S(=O)(=O)NC(=O)N2CCN(C(=O)c3ccc(Nc4ccnc5cc(C(F)(F)F)ccc45)cc3)CC2)cc1 — higher, 253 to 255 °C
- Clc1cccc(Nc2ncnc3[nH]nc(NCc4cccnc4)c23)c1 — higher, 204 to 206 °C
- O=C(Nc1cc(C(F)(F)F)cc(C(F)(F)F)c1)Nc1cc(C(F)(F)F)ccc1Oc1ccccc1C(=O)O — higher, 229 to 231 °C
- COc1cccc(CNC(=O)c2ncc3ccccc3n2)c1 — lower, 91 to 93 °C
- Nc1ccc(S(=O)(=O)N2CCCC(c3ccc(Cl)c(C(F)(F)F)c3)=N2)cc1 — higher, 205 to 206 °C
- CCCCc1nc(CCCC)n(Cc2ccc(-c3ccccc3C(=O)O)cc2)n1 — lower, 134 to 135 °C
- CCOP(OCC)c1ccccc1P(c1cc(C(C)(C)C)c(OC)c(C(C)(C)C)c1)c1cc(C(C)(C)C)c(OC)c(C(C)(C)C)c1 — lower, 104 to 105 °C
- CCCn1c(=O)c2[nH]c(-c3ccc4c(c3)OCCO4)nc2n(CCC)c1=O — higher, 280 to 282 °C
- CCCCc1ccc(S(=O)(=O)CC(O)(CS(=O)(=O)c2ccc(OC)cc2)C(=O)NO)cc1 (stereo not given) — lower, 63 to 68 °C
- CC(OCc1cc2cc(Cl)ccc2n1S(=O)(=O)c1ccc2c(c1)OCCN2C)C(=O)O (stereo not given) — lower, 68 °C
- C=C(C)CN(CC)c1nc(C)[nH]c2cc(-c3ccccc3)nc1-2 — lower, 148 to 150 °C
- CC(C)(C)C(NC(=O)Cc1ccc2ncccc2c1)NC(=NC#N)Nc1cccc2ncccc12 (stereo not given) — lower, 150 to 151 °C
- Cc1cc(Nc2ccnc(Nc3ccc(C(=O)N(C)C4CCCN(CCCC(F)(F)F)C4)cc3)n2)ccc1F (stereo not given) — lower, 100 to 110 °C
- O=C(CCl)NC(=O)Nc1cc(C(F)(F)F)cc(C(F)(F)F)c1 — lower, 170 °C
- N#CC=C1CCN(c2ccc(N3C[C@H](CNC(=O)C(F)F)OC3=O)cc2F)CC1 — lower, 162 to 164 °C
- CCNc1ncccc1-c1sccc1-c1cccnc1F — lower, 86 to 89 °C
- CCN(C(=O)c1c(Cl)cccc1[Si](C)(C)C)C(OC)C(C)(C)C (stereo not given) — lower, 82 to 83 °C
- Cn1ccnc1C(C)(C)O — lower, 128 to 129 °C
- O=C(O)CCc1cc(OCCCc2cn(-c3ccc(C(F)(F)F)cn3)nc2C2CCCCC2)nn1-c1ccccc1 — lower, 182 to 183 °C
- Cc1c(C)c2c(c(C)c1NC(=O)CC(C)(C)C)C(c1ccc(C3OCCO3)cc1)CO2 (stereo not given) — lower, 193 to 194 °C
- COc1ccc(C=C2NC(=O)N(C)C2=O)cc1 — higher, 221 to 222 °C
- CCCCCCCCCCCCCCOc1ccc(N(CC(=O)O)CC(=O)O)cc1OCCCCCCCCCCCCCC — lower, 89 to 93 °C
- CNC(=S)n1nc(NC(=O)c2ccccc2)nc1N — higher, > 300 °C
- COCCOc1ccc(/C=C/C(=O)NS(=O)(=O)c2ccccc2Cl)c(Oc2ncc(C(F)(F)F)cc2Cl)c1 — lower, 168 to 169 °C
- COc1cc(C2C3=C(COC3=O)Nc3ccc4cc[nH]c4c32)ccc1F (stereo not given) — lower, 170 to 172 °C
- C(=C\c1cc(/C=C/c2ccc3cc[nH]c3c2)n[nH]1)/c1cccc(OCc2ccccn2)c1 — lower, 193 to 195 °C
- CCCCC(OCC(=O)c1ccccc1)C(F)CC (stereo not given) — lower, 39.6 to 40.1 °C
- CC(=O)N1c2ccccc2C[C@H]1C#N — lower, 134 to 135 °C
- COc1ccc2ccc(N3C(=O)c4ccccc4C3OC(=O)N3CCN(C)CC3)nc2n1 (stereo not given) — higher, 218 °C
- COC(=O)C(Cc1ccc(C#N)cc1)C(=O)c1ccc(C#N)cc1 (stereo not given) — lower, 154 to 157 °C
- CN(C)C(=O)C1CCCc2c1c1ccccc1n2Cc1ccccc1 (stereo not given) — higher, 208 to 210 °C
- Cc1c2c3c(ccc2nn1C)CCC3=O — lower, 157 to 159 °C
- COc1cc(OC)c(S(=O)(=O)Cl)c(OC)c1 — lower, 126 to 129 °C
- O=C(O)CCc1cnoc1-c1ccc([N+](=O)[O-])cc1 — higher, 204 to 205 °C
- O=C(O)c1ccc(NCCOc2ccc(Br)cc2)cc1 — lower, 190 to 192 °C
- COc1ccc(C(=O)Nc2ccccc2)cc1NCc1cccc(F)c1 — lower, 137 to 140 °C
- Oc1nc2cc(F)ccc2n2cnnc12 — higher, > 300 °C
- CCCCNC(=O)[C@H](C)C[C@H](O)[C@H](CC1CCCCC1)NC(=O)[C@H](Cc1cscn1)NC(=O)OC(C)(C)C — lower, 172 to 174 °C
- CN(C(=O)On1cccn1)c1ccccc1 — lower, 63 to 67 °C
- CCCSc1ncc(C(=O)O)n1Cc1ccccc1Cl — lower, 158 to 160 °C
- CC(C)OCC(C)Oc1ccc(COc2cnn(C(C)(C)C)c(=O)c2Cl)cc1 (stereo not given) — lower, 60 to 62 °C
- CCOc1nsc(S(C)(=O)=O)c1S(C)(=O)=O — lower, 158 to 160 °C
- CCOC(=O)C1CCc2[nH]c3ccc(F)cc3c2C1 (stereo not given) — lower, 115 to 117 °C
- CC1(COc2cccc(-c3noc4ccsc34)c2)CO1 (stereo not given) — lower, 84 to 85 °C
- Nc1c(Br)cc(Br)n2nc(SCc3ccccc3)nc12 — lower, 116 to 118 °C
- CC(=O)n1nc(CBr)c(Oc2cc(Cl)cc(Cl)c2)c1C — lower, 111 to 113 °C
- CCOC(=O)C(Sc1ccc(O)cc1)c1ccc(Cl)cc1 (stereo not given) — lower, 63 °C
- Cc1ccc(Cl)c(Nc2ccccc2-c2nnco2)c1Cl — lower, 180 to 181 °C
- NCC1Cc2cc(C(F)(F)F)cc(-c3ccc(F)c(Cl)c3)c2O1 (stereo not given) — higher, > 250 °C
- N#Cc1cc(Cl)ncc1Cl — lower, 55 to 58 °C
- O=C(Nc1ccc(C(F)(F)F)cc1)NC(Cc1ccc(C(F)(F)F)cc1)C(O)c1ccc(F)cc1 (stereo not given) — lower, 160 to 161 °C
- O=C(CCl)c1ccc(Cl)c(S(=O)(=O)NC2CCCCC2)c1 — lower, 117 °C
- Sc1nc2cc3c(cc2[nH]1)COCO3 — higher, 288 to 289 °C
- CCOc1cc2cc(CO)c(CO)c(-c3ccnc(-n4ccc5ccccc5c4=O)c3)c2cc1OCC — lower, 131 to 134 °C
- Cc1cc(-c2ccccc2)nnc1NN — lower, 162 °C
- Cc1nc2c(s1)-c1nc(Nc3ccc(N(C)C)cc3)ncc1CC2 — lower, 176 to 177 °C
